The source of these data is patent US9475816B2, “Substituted-1,4-dihydropyrazolo[4,3-b]indoles” (TAKEDA PHARMACEUTICAL COMPANY LIMITED, priority 2012, dated 2016).

The term IC50 denotes the point on the concentration scale where inhibition reaches its midpoint. High values mean weaker potency, low ones greater potency.

Test [1] deals with T1, human MetAP2 enzyme (Homo sapiens, UniProt P50579). The experiment in a line: MetAP2 enzyme assay, MetAP2 enzyme complexed with cobalt ions. Conditions: MetAP2 Co pIC50, 10 μM CoCl2; -log(IC50), IC50 molar.
T1 sequence (P50579 whole entry): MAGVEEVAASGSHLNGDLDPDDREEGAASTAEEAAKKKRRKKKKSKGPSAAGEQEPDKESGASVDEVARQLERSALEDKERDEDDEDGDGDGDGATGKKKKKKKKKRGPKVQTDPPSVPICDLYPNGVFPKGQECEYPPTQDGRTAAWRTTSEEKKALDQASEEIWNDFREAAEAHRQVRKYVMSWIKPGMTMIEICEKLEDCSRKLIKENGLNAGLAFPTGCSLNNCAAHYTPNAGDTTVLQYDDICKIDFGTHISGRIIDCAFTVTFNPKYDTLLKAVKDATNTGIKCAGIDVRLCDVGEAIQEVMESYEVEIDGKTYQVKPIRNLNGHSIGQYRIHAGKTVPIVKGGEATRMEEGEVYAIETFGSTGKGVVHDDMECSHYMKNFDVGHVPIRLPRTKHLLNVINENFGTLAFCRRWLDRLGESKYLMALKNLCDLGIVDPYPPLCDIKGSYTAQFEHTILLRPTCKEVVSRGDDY
Procedure: DNA encoding the full-length sequence of human MetAP2 enzyme is amplified by PCR and cloned into a pFastBac expression vector (Invitrogen). Recombinant baculovirus incorporating the MetAP2 construct is generated by transposition using the Bac-to-Bac system (Invitrogen). The expression of recombinant protein is carried out by infection of Spodoptera frugiperda Sf9 cells (Invitrogen) in 5L Wave Bioreactors (Wave Biotech). Recombinant protein is isolated from cellular extracts by binding to an SP Hitrap Fast Flow or SP Sepharose (Sigma) column, and the protein is eluted using a NaCl gradient. Partially purified extracts of MetAP2 are further purified by an AKTA FPLC over a Superdex-200 column (GE). The purity of MetAP2 protein is determined on denaturing SDS-PAGE gel.
The results for each well are expressed as percent inhibition and calculated using the equation:
The target of test [2] is T1, human MetAP2 enzyme. Kind of test: MetAP2 enzyme assay, MetAP2 enzyme complexed with manganese ions. The note with it: MetAP2 Mn pIC50, 10 μM MnCl2; -log(IC50), IC50 molar.
The next test concerns angiogenesis. Conditions: cited from earlier work.
The conditions of test [3]: mice; cited from earlier work.
For test [4] the following is noted: genetically and diet-induced obese mice; cited from earlier work.

Consider `Cc1cc(C(=O)N2CC(N)C2)ncc1-n1c2ccc(F)cc2c2[nH]ncc21` [Example 114, (3-Aminoazetidin-1-yl)(5-(7-fluoropyrazolo[4,3-b]indol-4(1H)-yl)-4-methylpyridin-2-yl)methanone], for which the results for the concentration for half-maximal inhibition (IC50) at human MetAP2 enzyme [1] and against human MetAP2 enzyme [2] were 25.1 nM and 12.6 nM, respectively.

Take `Cc1cc(C(=O)NCCCO)ncc1-n1c2ccc(F)cc2c2[nH]ncc21` [Example 115, 5-(7-Fluoropyrazolo[4,3-b]indol-4(1H)-yl)-N-(3-hydroxypropyl)-4-methylpicolinamide]: the values for the IC50 at human MetAP2 enzyme [1] and at human MetAP2 enzyme [2] were 12.6 nM and 10 nM, respectively.

In the case of `Cc1nc2c(cc1-n1c3ccc(F)cc3c3[nH]ncc31)ncn2CCS(C)(=O)=O` [Example 116, 7-Fluoro-4-(5-methyl-3-(2-(methylsulfonyl)ethyl)-3H-imidazo[4,5-b]pyridin-6-yl)-1,4-dihydropyrazolo[4,3-b]indole], the IC50 against human MetAP2 enzyme [1] was 12.6 nM; on human MetAP2 enzyme [2], 3.98 nM.

Consider `Cc1nc(C(=O)N2CC(N)C2)ccc1-n1c2ccc(F)cc2c2[nH]ncc21` [Example 117, (3-Aminoazetidin-1-yl)(5-(7-fluoropyrazolo[4,3-b]indol-4(1H)-yl)-6-methylpyridin-2-yl)methanone], for which the IC50 against human MetAP2 enzyme [1] is 20 nM; on human MetAP2 enzyme [2], 7.94 nM.

In the case of `Cc1nc(C(=O)NCCCO)ccc1-n1c2ccc(F)cc2c2[nH]ncc21` [Example 118, 5-(7-Fluoropyrazolo[4,3-b]indol-4(1H)-yl)-N-(3-hydroxypropyl)-6-methylpicolinamide], the IC50 against human MetAP2 enzyme [1] is 25.1 nM; against human MetAP2 enzyme [2] it was 10 nM.

For `CNC(=O)c1ccc(-n2c3ccc(F)cc3c3[nH]ncc32)c(C)n1` [Example 119, 5-(7-Fluoropyrazolo[4,3-b]indol-4(1H)-yl)-N,6-dimethylpicolinamide], the IC50 at human MetAP2 enzyme [1] is 20 nM; at human MetAP2 enzyme [2], 10 nM.

Take `Cc1nc(C(=O)N(C)CCO)ccc1-n1c2ccc(F)cc2c2[nH]ncc21` [Example 120, 5-(7-Fluoropyrazolo[4,3-b]indol-4(1H)-yl)-N-(2-hydroxyethyl)-N,6-dimethylpicolinamide]: the IC50 at human MetAP2 enzyme [1] and on human MetAP2 enzyme [2] was 15.8 nM each time.

Take `Cc1nc(C(=O)N(C)CC#N)ccc1-n1c2ccc(F)cc2c2[nH]ncc21` [Example 121, N-(Cyanomethyl)-5-(7-fluoropyrazolo[4,3-b]indol-4(1H)-yl)-N,6-dimethylpicolinamide]: the half-maximal inhibitory concentration (IC50) is 20 nM on human MetAP2 enzyme [1] and 15.8 nM against human MetAP2 enzyme [2].

Consider `Cc1nc(C(=O)NCCC#N)ccc1-n1c2ccc(F)cc2c2[nH]ncc21` [Example 122, N-(2-Cyanoethyl)-5-(7-fluoropyrazolo[4,3-b]indol-4(1H)-yl)-6-methylpicolinamide], for which the half-inhibitory concentration (IC50) against human MetAP2 enzyme [1] and against human MetAP2 enzyme [2] was 7.94 nM throughout.

With `Cc1nc(C(=O)NC[C@@H](C)O)ccc1-n1c2ccc(F)cc2c2[nH]ncc21` [Example 123, 5-(7-Fluoropyrazolo[4,3-b]indol-4(1H)-yl)-N—((R)-2-hydroxypropyl)-6-methylpicolinamide], the results for the half-maximal inhibitory concentration (IC50) against human MetAP2 enzyme [1] and against human MetAP2 enzyme [2] were 7.94 nM and 6.31 nM, respectively.

As to `Cc1nc(C(=O)NCC(N)=O)ccc1-n1c2ccc(F)cc2c2[nH]ncc21` [Example 124, N-(2-Amino-2-oxoethyl)-5-(7-fluoropyrazolo[4,3-b]indol-4(1H)-yl)-6-methylpicolinamide], the IC50 against human MetAP2 enzyme [1] is 10 nM; on human MetAP2 enzyme [2], 12.6 nM.

As to `Cc1nc(C(=O)N2CC(C#N)C2)ccc1-n1c2ccc(F)cc2c2[nH]ncc21` [Example 125, 1-(5-(7-Fluoropyrazolo[4,3-b]indol-4(1H)-yl)-6-methylpicolinoyl)azetidine-3-carbonitrile], the concentration for half-maximal inhibition (IC50) on human MetAP2 enzyme [1] is 12.6 nM; on human MetAP2 enzyme [2] it was 10 nM.

Take `Cc1nc(C(=O)NC[C@H](C)O)ccc1-n1c2ccc(F)cc2c2[nH]ncc21` [Example 126, 5-(7-Fluoropyrazolo[4,3-b]indol-4(1H)-yl)-N-((2S)-2-hydroxypropyl)-6-methylpicolinamide]: the IC50 against human MetAP2 enzyme [1] and against human MetAP2 enzyme [2] was 10 nM in each case.

For the compound `Cc1nc(N2CC(O)C2)ncc1-n1c2ccc(F)cc2c2[nH]ncc21` [Example 127, 1-(5-(7-Fluoropyrazolo[4,3-b]indol-4(1H)-yl)-4-methylpyrimidin-2-yl)azetidin-3-ol], the concentration for half-maximal inhibition (IC50) against human MetAP2 enzyme [1] was 7.94 nM; against human MetAP2 enzyme [2], 15.8 nM.

Turning to `Cc1nc2[nH]cnc2cc1-n1c2cc(Cl)ccc2c2[nH]ncc21` [Example 128, 6-Chloro-4-(5-methyl-3H-imidazo[4,5-b]pyridin-6-yl)-1,4-dihydropyrazolo[4,3-b]indole], the 50% inhibitory concentration (IC50) was 79.4 nM against human MetAP2 enzyme [1] and 63.1 nM at human MetAP2 enzyme [2].

In the case of `Cc1nc2[nH]cnc2cc1-n1c2cc(Cl)c(F)cc2c2[nH]ncc21` [Example 129, 6-Chloro-7-fluoro-4-(5-methyl-3H-imidazo[4,5-b]pyridin-6-yl)-1,4-dihydropyrazolo[4,3-b]indole], the IC50 on human MetAP2 enzyme [1] is 25.1 nM; against human MetAP2 enzyme [2] it was 50.1 nM.

Take `Cc1nc2[nH]cnc2cc1-n1c2cc(F)c(F)cc2c2[nH]ncc21` [Example 130, 6,7-Difluoro-4-(5-methyl-3H-imidazo[4,5-b]pyridin-6-yl)-1,4-dihydropyrazolo[4,3-b]indole]: the IC50 against human MetAP2 enzyme [1] was 10 nM; against human MetAP2 enzyme [2] it was 12.6 nM.

On to `Cc1cc2c(cc1F)c1[nH]ncc1n2-c1cc2[nH]cnc2nc1C` [Example 131, 7-Fluoro-6-methyl-4-(5-methyl-1H-imidazo[4,5-b]pyridin-6-yl)-1,4-dihydropyrazolo[4,3-b]indole], for which the 50% inhibitory concentration (IC50) against human MetAP2 enzyme [1] was 12.6 nM; against human MetAP2 enzyme [2] it was 7.94 nM.

Regarding `CC(c1ccccc1)n1c2ccc(F)cc2c2[nH]ncc21` (centres unmarked) [Example 132, 7-Fluoro-4-(1-phenylethyl)-1,4-dihydropyrazolo[4,3-b]indole], the IC50 against human MetAP2 enzyme [1] and on human MetAP2 enzyme [2] was 50.1 nM throughout.

Consider `Cc1nc(CCS(C)(=O)=O)ccc1-n1c2ccc(F)cc2c2[nH]ncc21` [Example 133, 7-Fluoro-4-(2-methyl-6-(2-(methylsulfonyl)ethyl)pyridin-3-yl)-1,4-dihydropyrazolo[4,3-b]indole], for which the results for the half-maximal inhibitory concentration (IC50) on human MetAP2 enzyme [1] and against human MetAP2 enzyme [2] were 10 nM and 6.31 nM, respectively.

With `OCc1nn(C(F)F)cc1-n1c2ccc(F)cc2c2[nH]ncc21` [Example 134, (1-(Difluoromethyl)-4-(7-fluoropyrazolo[4,3-b]indol-4(1H)-yl)-1H-pyrazol-3-yl)methanol], the figures for the IC50 on human MetAP2 enzyme [1] and on human MetAP2 enzyme [2] were 15.8 nM and 6.31 nM, respectively.

Consider `Cc1nc(N2C[C@H]3C[C@H]3[C@@H]2C(N)=O)ncc1-n1c2ccc(F)cc2c2[nH]ncc21` [Example 135, (1R,2R,5S)-3-(5-(7-Fluoropyrazolo[4,3-b]indol-4(1H)-yl)-4-methylpyrimidin-2-yl)-3-azabicyclo[3.1.0]hexane-2-carboxamide], for which the 50% inhibitory concentration (IC50) at human MetAP2 enzyme [1] and at human MetAP2 enzyme [2] was 5.01 nM in each case.

For the compound `Cc1nc(N2C[C@H]3C[C@H]3[C@H]2C(N)=O)ncc1-n1c2ccc(F)cc2c2[nH]ncc21` [Example 136, (1R,2S,5S)-3-(5-(7-Fluoropyrazolo[4,3-b]indol-4(1H)-yl)-4-methylpyrimidin-2-yl)-3-azabicyclo[3.1.0]hexane-2-carboxamide], the IC50 against human MetAP2 enzyme [1] and on human MetAP2 enzyme [2] was 5.01 nM throughout.

With `Cc1nc(N2CC[C@H](S(C)(=O)=O)C2)ncc1-n1c2ccc(F)cc2c2[nH]ncc21` [Example 137, 7-Fluoro-4-(4-methyl-2-((S)-3-(methylsulfonyl)pyrrolidin-1-yl)pyrimidin-5-yl)-1,4-dihydropyrazolo[4,3-b]indole], the values for the IC50 at human MetAP2 enzyme [1] and against human MetAP2 enzyme [2] were 10 nM and 6.31 nM, respectively.

As for `Cn1cc(-n2c3ccc(F)cc3c3[nH]ncc32)c(CO)n1` [Example 138, (4-(7-Fluoropyrazolo[4,3-b]indol-4(1H)-yl)-1-methyl-1H-pyrazol-3-yl)methanol], the IC50 against human MetAP2 enzyme [1] was 10 nM; at human MetAP2 enzyme [2] it was 5.01 nM.

As for `CO[C@@H]1[C@H](OC(=O)/C=C/C=C/C=C/C=C/C(=O)O)CC[C@]2(CO2)[C@H]1[C@@]1(C)O[C@@H]1CC=C(C)C` [fumagillin], in the test with angiogenesis, the angiogenesis result is recorded as “inhibit angiogenesis”. In addition, the “effect on diet-induced obesity” value in test [3] was “impair diet-induced obesity”.

Take beloranib hemioxalate [CKD-732]: the “food intake, body weight, fat mass, size of adipocytes” value in test [4] was “decrease food intake, body weight, fat mass, and the size of adipocytes”.
